For orientation: IC50 means the concentration that gives 50% inhibition. In general, Kd refers to the equilibrium constant for the complex coming apart. Low readings indicate a tighter complex, high ones a looser complex.

For one assay, the target named is T1, PIP4K2C (Homo sapiens, UniProt Q8TBX8).
T1 sequence (Q8TBX8 2-421): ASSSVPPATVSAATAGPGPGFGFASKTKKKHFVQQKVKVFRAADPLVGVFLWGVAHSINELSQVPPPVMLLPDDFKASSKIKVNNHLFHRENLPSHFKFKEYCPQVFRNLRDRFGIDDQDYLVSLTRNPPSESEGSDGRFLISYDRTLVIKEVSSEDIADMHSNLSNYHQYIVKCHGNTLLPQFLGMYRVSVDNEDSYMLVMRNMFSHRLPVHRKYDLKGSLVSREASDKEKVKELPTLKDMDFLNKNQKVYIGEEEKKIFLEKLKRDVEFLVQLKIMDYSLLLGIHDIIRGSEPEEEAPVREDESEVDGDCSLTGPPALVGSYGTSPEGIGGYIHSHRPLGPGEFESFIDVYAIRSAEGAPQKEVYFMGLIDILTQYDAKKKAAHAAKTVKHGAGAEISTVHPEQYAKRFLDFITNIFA
In words: KINOMEscan competition binding, single dose […]. The conditions noted are these: 10 µM.

Another assay addresses T2, PIP4Kalpha (Homo sapiens, UniProt P48426).
T2 construct: gene PIP4K2A
T2 sequence (P48426 2-406): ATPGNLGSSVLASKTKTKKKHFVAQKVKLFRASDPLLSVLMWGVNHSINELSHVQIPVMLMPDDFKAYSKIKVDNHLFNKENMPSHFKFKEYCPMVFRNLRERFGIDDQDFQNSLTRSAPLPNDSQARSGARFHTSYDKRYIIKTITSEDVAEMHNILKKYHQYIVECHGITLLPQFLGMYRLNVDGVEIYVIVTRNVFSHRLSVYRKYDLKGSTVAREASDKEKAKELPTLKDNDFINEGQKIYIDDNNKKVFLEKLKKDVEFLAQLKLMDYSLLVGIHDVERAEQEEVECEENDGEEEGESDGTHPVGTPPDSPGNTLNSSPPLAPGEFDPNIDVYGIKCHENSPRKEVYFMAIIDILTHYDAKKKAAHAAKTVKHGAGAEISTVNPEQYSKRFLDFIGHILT
In words: […] lipid kinase assay (PI5P phosphorylation) with purified recombinant enzyme; weak inhibition. The format is biochemical.

For a further assay, the target named is T3, PIP4Kγ (Homo sapiens, UniProt Q8TBX8).
T3 construct: gene PIP4K2C; KINOMEscan construct for Kd; full length isolated PIP4Kγ for the enzyme assay
T3 sequence (Q8TBX8 2-421): T1 sequence (Q8TBX8 2-421)
In words: DiscoverX KINOMEscan competition binding Kd; also […] lipid kinase assay with purified full-length enzyme (IC50 […]).

On to `Cn1nnnc1Sc1ncnc2scc(-c3ccccc3)c12` [ML168], for which the ML168 on PIP4K2C was 23. Regarding `Cn1nnnc1Sc1ncnc2scc(-c3cccc(S(C)(=O)=O)c3)c12` [NCT-504, 4-((1-methyl-1H-tetrazol-5-yl)thio)−5-(3-(methylsulfonyl)phenyl)thieno[2,3-d]pyrimidine], the IC50 at PIP4Kalpha fell in the range of 50 to 100 µM. The affinity on PIP4Kγ, expressed as Kd, was 0.354 µM.

The values above are taken from publication PMC5743427, “Inhibition of PIP4Kγ ameliorates the pathological effects of mutant huntingtin protein” (eLife, 2017).
